Experimental data taken from patent US5776944A, “7-(4-aminomethyl-3-methyloxyiminopyrroplidin-1-yl)-1-cyclopropyl-6-flu oro-4-oxo-1,4-dihydro-1,8-naphthyridine-3-carboxylic acid and the process for the preparation thereof” (LG Chemical Ltd., priority 1994, dated 1998).
≈ marks a conversion by molar mass, not a printed value.

Key:
[1] = tested on: Staphylococcus aureus giorgio; test: In vitro antibacterial activity (MIC, agar dilution), Biological Example 1; assay type: cell-based; conditions: 18 h, Table 25, read-out: Minimum Inhibitory Concentration
[2] = tested on: Staphylococcus epidermidis 178; test: as above; assay type: cell-based; conditions: 18 h; Staphylococcus epidermidis 178, Table 25; read-out: Minimum Inhibitory Concentration
[3] = tested on: Enterobacter cloacae 1194E; test: microbe, parasite or virus in culture; assay type: cell-based; conditions: 18 h, read-out: Minimum Inhibitory Concentration
Enterobacter cloacae P99 = test: microbe, parasite or virus in culture; assay type: cell-based; conditions: P99, 18 h, read-out: Minimum Inhibitory Concentration
Escherichia coli 10536 = test: In vitro antibacterial activity (MIC, agar dilution), Biological Example 1; assay type: cell-based; conditions: 18 h; Escherichia coli 10536, Table 25; read-out: Minimum Inhibitory Concentration
Staphylococcus aureus 77 = test: as above; assay type: cell-based; conditions: 18 h; Staphylococcus aureus 77, Table 25; read-out: Minimum Inhibitory Concentration
[4] = tested on: Pseudomonas aeruginosa 10145; test: as above; assay type: cell-based; conditions: 18 h; Pseudomonas aeruginosa 10145, Table 25; read-out: Minimum Inhibitory Concentration
Escherichia coli 851E = test: as above; assay type: cell-based; conditions: 18 h, Table 25, read-out: Minimum Inhibitory Concentration
[5] = tested on: Citrobacter diversus 2046E; test: as above; assay type: cell-based; conditions: Citrobacter koseri, 18 h, Table 25, read-out: Minimum Inhibitory Concentration
[6] = tested on: Escherichia coli TEM9 2639E; test: microbe, parasite or virus in culture; assay type: cell-based; conditions: TEM92639E, 18 h, read-out: Minimum Inhibitory Concentration
Escherichia coli 3190Y = test: In vitro antibacterial activity (MIC, agar dilution), Biological Example 1; assay type: cell-based; conditions: 18 h, Table 25, read-out: Minimum Inhibitory Concentration
[7] = tested on: Acinetobacter calcoaceticus 15473; test: as above; assay type: cell-based; conditions: 18 h; Acinetobacter calcoaceticus 15473, Table 25; read-out: Minimum Inhibitory Concentration
[8] = tested on: Pseudomonas aeruginosa 1912E; test: as above; assay type: cell-based; conditions: 18 h; Pseudomonas aeruginosa 1912E, Table 25; read-out: Minimum Inhibitory Concentration
[9] = tested on: Staphylococcus aureus 241; test: as above; assay type: cell-based; conditions: 18 h; Staphylococcus aureus 241, Table 25; read-out: Minimum Inhibitory Concentration
[10] = tested on: Escherichia coli TEM3 3455E; test: microbe, parasite or virus in culture; assay type: cell-based; conditions: TEM33455E, 18 h, read-out: Minimum Inhibitory Concentration
[11] = tested on: Klebsiella aerogenes 1082E; test: In vitro antibacterial activity (MIC, agar dilution), Biological Example 1; assay type: cell-based; conditions: 18 h, Table 25, read-out: Minimum Inhibitory Concentration
Micrococcus luteus 9341 = test: as above; assay type: cell-based; conditions: 18 h; Micrococcus luteus 9341, Table 25; read-out: Minimum Inhibitory Concentration
[12] = tested on: Salmonella typimurium 14028; test: as above; assay type: cell-based; conditions: 18 h; Salmonella typimurium 14028, Table 25; read-out: Minimum Inhibitory Concentration
[13] = tested on: Staphylococcus epidermidis 887E; test: as above; assay type: cell-based; conditions: 18 h, Table 25, read-out: Minimum Inhibitory Concentration
Acute oral toxicity test = conditions: in vivo, ICR male mouse, 7 days
Description: To determine the acute oral toxicity of the compounds prepared in Examples 1 and 34, the test solution containing the compounds in various concentrations were orally administered to ICR male mouse in an amount of 10 ml per kg of body weight. For 7 days after administration, the lethality and the conditions of test mouse were observed, from which LD50 value (mg/kg), was calculated.

Bacillus subtilis 6633 = test: In vitro antibacterial activity (MIC, agar dilution), Biological Example 1; assay type: cell-based; conditions: 18 h; Bacillus subtilis 6633, Table 25; read-out: Minimum Inhibitory Concentration
[14] = tested on: Staphylococcus aureus 6538p; test: as above; assay type: cell-based; conditions: 18 h, Table 25, read-out: Minimum Inhibitory Concentration
[15] = tested on: Klebsiella aerogenes 1976E; test: as above; assay type: cell-based; conditions: 18 h, Table 25, read-out: Minimum Inhibitory Concentration
[16] = tested on: Escherichia coli TEM5 3739E; test: microbe, parasite or virus in culture; assay type: cell-based; conditions: TEM53739E, 18 h, read-out: Minimum Inhibitory Concentration
[17] = tested on: Streptococcus faecalis 29212; test: In vitro antibacterial activity (MIC, agar dilution), Biological Example 1; assay type: cell-based; conditions: Enterococcus faecalis, 18 h; Streptococcus faecalis 29212, Table 25; read-out: Minimum Inhibitory Concentration

`NCC1CN(c2nc3c(cc2F)c(=O)c(C(=O)O)cn3C2CC2)CC1=NOCc1ccccc1` (stereo not shown) [Example 1, 7-(4-aminomethyl-3-benzyloxyimino-pyrrolidin-1-yl)-1-cyclopropyl-6-fluoro-1,4-dihydro-4-oxo-1,8-naphthyridine-3-carboxylic acid] gave an MIC [1] of no more than 8 ng/mL, an MIC [2] of 2 µg/mL (≈ 4.3 µM) and an MIC [3] of 0.031 µg/mL (≈ 0.0666 µM). The MIC (Enterobacter cloacae P99) was no more than 8 ng/mL, the MIC (Escherichia coli 10536) was no more than 8 ng/mL and the MIC (Staphylococcus aureus 77) was no more than 8 ng/mL. It also gave an MIC [4] of 2 µg/mL (≈ 4.3 µM), an MIC (Escherichia coli 851E) of 0.016 µg/mL (≈ 0.0344 µM) and an MIC [5] of 0.063 µg/mL (≈ 0.135 µM). The MIC [6] was 0.063 µg/mL (≈ 0.135 µM), the MIC (Escherichia coli 3190Y) was no more than 8 ng/mL and the MIC [7] was no more than 8 ng/mL. For the same compound, the MIC [8] was 1 µg/mL (≈ 2.15 µM), the MIC [9] was 2 µg/mL (≈ 4.3 µM) and the MIC [10] was 0.25 µg/mL (≈ 0.537 µM). The MIC [11] was 0.063 µg/mL (≈ 0.135 µM), the MIC (Micrococcus luteus 9341) was 0.063 µg/mL (≈ 0.135 µM) and the MIC [12] was 0.13 µg/mL (≈ 0.279 µM). The MIC [13] was no more than 8 ng/mL, the LD50 at 168 h (Acute oral toxicity test) was greater than 3000 mg/kg and the MIC (Bacillus subtilis 6633) was no more than 8 ng/mL. The MIC [14] was no more than 8 ng/mL, the MIC [15] was 0.25 µg/mL (≈ 0.537 µM) and the MIC [16] was 0.063 µg/mL (≈ 0.135 µM). It also gave an MIC [17] of 0.031 µg/mL (≈ 0.0666 µM).
